The values below are quoted from earlier work in US8309607B2, “Rapid release irbesartan-containing pharmaceutical composition” (ratiopharm GmbH, priority 2006, dated 2012).

SMILES strings stand for the structures.

The conditions of the data set: in vivo.

On to `CCCCC1=NC2(CCCC2)C(=O)N1Cc1ccc(-c2ccccc2-c2nnn[nH]2)cc1` [Irbesartan, 2-n-butyl-4-spirocyclopentane-1-[(2′-(tetrazol-5-yl)biphenyl-4-yl)methyl]-2-imidazolin-5-one], for which the oral bioavailability result is “acceptable oral bioavailability”.
